Data published in article PMC10947113, “A Bivalent Activatable Fluorescent Probe for Screening and Intravital Imaging of Chemotherapy‐Induced Cancer Cell Death” (Angewandte Chemie (Weinheim an Der Bergstrasse, Germany), 2021).
Starred links: 1 amine or outer side, 2 acyl side, 3 side chain; linkers in the order of their positions; H or OH if unused. Non-standard residues stand in square brackets, D forms with d. Residues, ends and D or L forms follow the SMILES beside them. X1 = CC1=CC(C)=[N+]2C1=C(c1cccc(-c3[nH]c4ccccc4c3C[C@H](N[*:1])C(=O)[*:2])c1)c1ccc(-c3ccc(C)s3)n1[B-]2(F)F

Legend:
MCF7 cells = assay: Cell viability, TACS MTT cell proliferation assay, MCF7; format: cell-based, human; settings: different working concentrations, 3 h, means ± SD (n=5), ns for p>0.05
Experimental: (§1) Figure S15. Cell viability experiments (TACS® MTT cell proliferation assay) after incubation of Apotracker Red in breast cancer cell lines (a: MCF7 cells, b: MDA-MB-231 cells) at different concentrations for 3 h. Data presented as means ± SD (n=5). P values obtained from one- way ANOVA using multiple comparisons (ns for p>0.05).
(§2) Figure S16. Quantification of E GFP+ macrophages in tumours from untreated and cisplatin-treated mice by time- lapse imaging on a spinning disk confocal microscope (λexc: 488 nm). Data presented as means ± SD of 8 random areas in 2- 3 mice per group (untreated or treated with 10 μg g-1 cisplatin for 72 h). […]

[1] = Stability analysis in mouse serum; format: in vitro ADME; settings: 24 h, 37 °C, 500 rpm shaker, 50 μM (method) or 25 μM (Figure S14), CH3CN protein precipitation, HPLC traces and fluorescence emission (exc 520 nm)
Experimental: Figure S14. Stability analysis of Apotracker Red in mouse serum. HPLC traces of Apotracker Red (25 μM) after incubation in PBS buffer or mouse serum for 24 h at 37 °C . […]
fluorescence emission of Apotracker Red before and after incubation in mouse serum and […]
(1 picture or pasted object on this page, not shown here) […]
r.t., followed by separation from erythrocytes by centrifugation for 10 min, 2, 000 g at r.t. Sera were transferred into new tubes and stored at - 20°C until use. 50 μM Apotracker Red in PBS or in serum were incubated fo r 24 h at 37 °C on a vertical shaker at 500 rpm . A s control s, seru m without peptide and freshly aliquoted 50 μM Apotracker Red in mouse serum were used.
Fluorescence spectra were recorded after excitation at 520 nm. For HPLC measurements, proteins were precipitated by addition of CH3CN and centrifugation at 300 g fo r 5 m in a t r.t. and the resulting supernatants were injected.
Lipid layer assays . […] The limit of detection (LoD) of Apotracker Red for PtdSer was determined by fluorescence titration of serial dilutions of Pt dSer layers after incubation with Apotracker Red (1 μM, PBS) at 25 °C for 40 min. The LoD was calculated using the equation LoD = (3 × σ)/k, where σ is the standard deviation of blank solutions and k is the slope of the linear regression fit. Data was recorded on Cytation 3 (exc: 530 nm). […]

MDA-MB-231 cells = assay: Cell viability, TACS MTT cell proliferation assay, MDA-MB-231; format: cell-based, human; settings: different working concentrations, 3 h, means ± SD (n=5), ns for p>0.05
Experimental: as §1, §2

CC1=CC(C)=[N+]2C1=C(c1cccc(-c3[nH]c4ccccc4c3C[C@@H]3NC(=O)[C@H](Cc4ccccc4)NC(=O)[C@H](Cc4c[nH]c5ccccc45)NC(=O)[C@H](CCCCN)NC(=O)[C@H](CCCCN)NC(=O)[C@H](CCCNC(=N)N)NC(=O)CNC3=O)c1)c1ccc(-c3ccc(C)s3)n1[B-]2(F)F [Apotracker Red] (cyclo(F[X1]GRKKW))
cell toxicity (MTT cell viability), MCF7 (MCF7 cells): did not cause cell toxicity
proteolytic stability in mouse serum [1]: good proteolytic stability for up to 24 h
cell toxicity (MTT cell viability), MDA-MB-231 (MDA-MB-231 cells): did not cause cell toxicity
